These are literature values, as cited in patent publication US20110287113A1, “TREATMENT OF PSORIASIS” (Insense Limited, priority 2009, published 2011).

For series [1] the following is noted: under normal conditions.
The conditions of series [2]: under normal conditions. The source holds these as a separate data set.
For series [3] the following is noted: at 25° C.

Take `[N]=O` [NO, nitric oxide]: the “maximum solubility in water” value in series [1] is “approximately 1.7 mM”.
Regarding `N[C@@H](CSN=O)C(=O)O` [S-nitrosocysteine], the “time to total (100%) decomposition” value in series [2] was “within minutes”.
Regarding `N[C@@H](CCC(=O)N[C@@H](CSN=O)C(=O)NCC(=O)O)C(=O)O` [S-nitrosoglutathione], the “time to total (100%) decomposition” value in series [2] was “hours/days”.
For `O=NO` [nitrite], in series [3], the pKa is on record as 3.4.

By pKa is commonly meant the negative logarithm of the acid dissociation constant.
